Experimental data: patent US4912036A, “Rapid differentiation of bacteria using cyclic polypeptide antibiotics” (Eastman Kodak Company, priority 1986, dated 1990)

What was measured:
S. aureus = assay: Inhibition of RIND IX reduction by various cyclic polypeptide antibiotics; assay type: cell-based, Staphylococcus aureus; conditions: 635 nm
Experimental: The following materials were used in this example: stock solutions of RIND IX compound dispersion prepared as described above, glucose (10% in water), trimethyl-1,4-benzoquinone ETA (1.5 mg/ml methanol), and the antibiotics (1 mg/ml in dimethylsulfoxide). S. aureus cells were grown as described above. The final cell concentration in the assay mixture was about 4.3×10^8 cells/ml.
Test solutions were prepared by adding in the order: 1.2 ml of HEPES buffer, 50 μl glucose solution, 1.5 ml of RIND IX dispersion, 100 μl of antibiotic solution, 100 μl of cell suspension and 25 μl of ETA solution. Control solutions were prepared as described in Examples 2 and 3. Optical density readings (OD) were measured at 635 nm at 0 minutes and after incubation at 37° C. for 30 minutes for test and control solutions, and the change in density (ΔOD) was determined. Table VI below lists the results, expressed as corrected percent inhibition of the reduction of the RIND compound. The corrected percent inhibition is calculated by dividing the difference between the ΔOD obtained from the Cell Control without antibiotic and the ΔOD of the test solution, by ΔOD of the Cell Control without antibiotic. All readings were corrected by subtracting readings of the appropriate background Controls.
Solutions containing 2.9 ml HEPES, 50 μl of the antibiotic solution and 100 μl cell solution were incubated at 37° C. for 30 minutes, centrifuged for 10 minutes and decanted. The resulting pellet was then treated with 1.4 ml HEPES, 50 μl glucose solution, 1.5 ml RIND IX dispersion and 25 μl ETA solution, mixed well and the densities recorded as described above in Method 1. The corrected percent inhibition data was calculated as described in Method 1 above.

E. coli = assay: RIND XXIX reduction solution assay, Δ fluorescence; assay type: cell-based, Escherichia coli; conditions: E. coli (gram -) about 5×10^7 cells/ml, polymixin B at 0.01 mg/ml of methanol
Experimental: (§1) Bacterial suspensions were prepared by growing the cells in BHT broth to stationary phase overnight at 37° C. P. auruginosa was grown with agitation. About 40 ml of each overnight culture was centrifuged, decanted and washed once with 0.05 molar potassium phosphate buffer or 0.05 molar N-2-hydroxy-ethylpiperazine-N'-2-ethanesulfonic acid (HEPES) buffer, pH 7.8, and resuspended in buffer.
(§2) Dispersions containing RIND compounds were prepared by dissolving the RIND compound in N,N-dimethylformamide (DMF) at 16 mg compound per ml of solvent. An aliquot (250 μl) of the resulting solution was added to 500 μl of TRITON X-100 surfactant. This mixture was then added dropwise with stirring to 25 ml of 0.05 molar HEPES buffer. A dispersion of RIND XXIX was prepared similarly except that DMF was acidified with 0.1% sulfuric acid. Compositions containing water-compatible RIND compounds were prepared as described above except the surfactant was omitted.
(§3) Each test solution contained the following: dispersion of RIND XXIX (25 μl) prepared as described above, glucose (400 μl of 10% aqueous solution), tryptose (400 μl of 10% aqueous solution), trimethyl-1,4-benzoquinone ETA (500 μl of 1.5 mg/ml methanol). Aliquots (200 μl) of the mixture were mixed with solutions of the antibiotics (50 μl). The cell suspensions (50 μl) were then added. The final concentration of gramcidin S and tyrocidin were 0.1 mg/ml and 3.3 mg/ml, respectively. The final cell concentration was about 5×10^7 cells/ml. Cell control solutions contained all reagents except antibiotics. Background controls consisted of both buffer and solution controls. […]
(§4) The solutions were incubated at 37° C. for 30 minutes, and the change in fluorescence emission (Δ fluorescence) was determined as the difference between the readings taken when the solutions were first mixed and then after 30 minutes incubation. Measurements were made in a commercially available MICROFLUOR Reader (available from Dynatech Laboratories, Alexandria, Virginia, U.S.A.), modified with an excitation filter at 540 nm, an emission filter at 620 nm and a Xenon lamp. […]

K. pneumoniae = assay: RIND XXIX reduction solution assay, Δ fluorescence; assay type: cell-based, Klebsiella pneumoniae; conditions: K. pneumoniae (gram -) about 5×10^7 cells/ml, polymixin B at 0.01 mg/ml of methanol
Experimental: as §1, §2, §3, §4

[1] = system: viable gram-positive and gram-negative bacteria; assay: Differentiation in RIND XXIX solution assays, overall result; assay type: cell-based; conditions: polymixin B at 0.01 mg/ml of methanol
Experimental: Each test solution contained the following: dispersion of RIND XXIX (25 μl) prepared as described above, glucose (400 μl of 10% aqueous solution), tryptose (400 μl of 10% aqueous solution), trimethyl-1,4-benzoquinone ETA (500 μl of 1.5 mg/ml methanol). Aliquots (200 μl) of the mixture were mixed with solutions of the antibiotics (50 μl). The cell suspensions (50 μl) were then added. The final concentration of gramcidin S and tyrocidin were 0.1 mg/ml and 3.3 mg/ml, respectively. The final cell concentration was about 5×10^7 cells/ml. Cell control solutions contained all reagents except antibiotics. Background controls consisted of both buffer and solution controls. The buffer control contained all reagents except antibiotics and cells. The solution control contained all reagents except cells.
The solutions were incubated at 37° C. for 30 minutes, and the change in fluorescence emission (Δ fluorescence) was determined as the difference between the readings taken when the solutions were first mixed and then after 30 minutes incubation. Measurements were made in a commercially available MICROFLUOR Reader (available from Dynatech Laboratories, Alexandria, Virginia, U.S.A.), modified with an excitation filter at 540 nm, an emission filter at 620 nm and a Xenon lamp.
This example illustrates the practice of this invention to identify a Proteus species in solution. Test solutions and cell control solutions were prepared and tested as described in Example 2 and 3 except that polymixin B was used at 0.01 mg/ml of methanol. The final cell concentration was about 5×10^7 cells/ml.

P. vulgaris = assay: RIND XXIX reduction solution assay, Δ fluorescence; assay type: cell-based, Proteus vulgaris; conditions: P. vulgaris (gram -) about 5×10^7 cells/ml, polymixin B at 0.01 mg/ml of methanol
Experimental: as §1, §2, §3, §4

E. cloacae = assay: RIND XXIX reduction solution assay, Δ fluorescence; assay type: cell-based, Enterobacter cloacae; conditions: E. cloacae (gram -) about 5×10^7 cells/ml, polymixin B at 0.01 mg/ml of methanol
Experimental: as §1, §2, §3, §4

P. aeruginosa = assay: RIND XXIX reduction solution assay, Δ fluorescence; assay type: cell-based, Pseudomonas aeruginosa; conditions: P. aeruginosa (gram -) about 5×10^7 cells/ml, polymixin B at 0.01 mg/ml of methanol
Experimental: as §1, §2, §3, §4

virginiamycin
Corrected % Inhibition (S. aureus; Test Method 2 (cells preincubated with 50 μl antibiotic solution 30 minutes, centrifuged, pellet assayed), S. aureus): No Inhibition

ristocetin
Corrected % Inhibition (S. aureus; Test Method 1 (antibiotic in the test solution), S. aureus about 4.3×10^8 cells/ml, 100 μl of 1 mg/ml antibiotic solution, 30 minutes at 37° C.): No Inhibition

polymixin B
Δ Relative Fluorescence (30 Minutes) (E. coli): 1245
Δ Relative Fluorescence (30 Minutes) (K. pneumoniae): 1212
inhibition of reduction of RIND XXIX by gram-negative microorganisms, in words [1]: inhibited all of the gram-negative microorganisms except Proteus vulgaris from reducing the RIND XXIX compound
Δ Relative Fluorescence (30 Minutes) (P. vulgaris): 3079
Δ Relative Fluorescence (30 Minutes) (E. cloacae): 1975
Δ Relative Fluorescence (30 Minutes) (P. aeruginosa): 1287
